In patent publication US9096581B2, “Fluoroethyl thiamine or salts thereof and application thereof in preparation of anticoccidial drugs” (GUANGZHOU ORIGMOL FEED-ADDITIVE CO., LTD, priority 2012, dated 2015):

System: Eimeria tenella GD strains
Test: Comparison with other anticoccidial drugs in chickens infected with Eimeria tenella GD (Embodiment 3)
Type: in vivo
Set-up: oocyst value: scale not given here
Details: for number of oocysts in cecum / lesion value / average weight gain: 7th day; for lesion value: cecum, scale 0-40; for survival rate / average weight gain / bloody feces scoring: chickens; for bloody feces scoring: 5 days after infecting, score 0-4; for oocyst value: converted per Table 2; for relative weight gain rate: vs non-infected non-drug control
Text: 1-day-old Lingnan yellow chickens, purchased from Poultry Research Unit, Bureau of Animal Husbandry, Guangdong Academy of Agricultural Sciences, bred under coccidium-free environment, and subjected to experiment after no coccidium oocyst is found in feces through microscopic examination when the chickens are 14 days old. Perfect compound feed for chickens: prepared by Huizhou Yuantai Feed Co. Ltd., and containing no antibacterial or anticoccidial additive.
Eimeria tenella GD strains, having no resistance to various anticoccidial drugs. Breeding and amplifying in one chicken before the experiment, collecting fresh oocysts, sporulating, and preserving at 4° C. for later use.
Weighing the 14-day-old experiment chickens one by one, rejecting emaciated chickens or overweighted chickens, selecting healthy chickens of which the individual body weight difference is within 20 g, and dividing into 6 groups with 30 chickens in each group. Groups 1 and 2 are respectively a non-drug-applied and non-coccidium-killed control group and a coccidium-infected and non-drug-applied control group, and Groups 3-6 are respectively added with different anticoccidial drugs according to Table 4. Feeding with feed containing different drugs on the day of experiment grouping, enabling the chickens to freely take in the feed, and feeding the chickens until the experiment ends.
Except the non-coccidium-infected and non-drug-applied control group, giving each experiment chicken in each experiment group with 2.5×10^5 eimeria tenella sporulated oocysts via the crop on next day of the grouping day. During experiment, observing and recording the spirit, appetite, bloody feces situation, death count and the like of the chickens every day. Performing bloody feces scoring on the chickens in each group 5 days after infecting. On the 7th day, respectively weighing all the chickens in each group, then autopsying them, observing cecum lesions and counting the oocysts in the cecum.
The evaluation standard is the same with Embodiment 2.

| Compound | anticoccidial index (ACI) (5 ppm in feed) | number of oocysts in cecum (5 ppm in feed) | lesion value (5 ppm in feed) | survival rate (5 ppm in feed) | average weight gain (5 ppm in feed) | bloody feces scoring (5 ppm in feed) | oocyst value (5 ppm in feed) | relative weight gain rate (5 ppm in feed) | anticoccidial index (ACI) (125 ppm in feed) | number of oocysts in cecum (125 ppm in feed) | lesion value (125 ppm in feed) | survival rate (125 ppm in feed) | average weight gain (125 ppm in feed) | bloody feces scoring (125 ppm in feed) | oocyst value (125 ppm in feed) | relative weight gain rate (125 ppm in feed) |
| --- | --- | --- | --- | --- | --- | --- | --- | --- | --- | --- | --- | --- | --- | --- | --- | --- |
| CO[C@@H]1[C@@H](OC)[C@H](C)[C@@](O)(CC(=O)O)O[C@H]1[C@H](C)[C@H]1O[C@@]2(CC[C@@](C)([C@H]3CC[C@@](C)([C@@H]4O[C@@H]([C@H]5O[C@](C)(O)[C@H](C)C[C@@H]5C)C[C@@H]4O[C@@H]4C[C@H](OC)[C@@H](OC)[C@H](C)O4)O3)O2)C[C@H](O)[C@H]1C [maduramicin] | 186.7 | 1.265 ×10^6/chicken | 6 | 100% | 168.4 g/chicken | 0 | 5 | 97.7% |  |  |  |  |  |  |  |  |
| Cc1cc(C)nc(O)n1.O=C(Nc1ccc([N+](=O)[O-])cc1)Nc1ccc([N+](=O)[O-])cc1 [nicarbazin] |  |  |  |  |  |  |  |  | 192.9 | 0 ×10^6/chicken | 0 | 100% | 160.5 g/chicken | 0 | 0 | 92.9% |
